From patent US9695155B2, “Herbicidal substituted pyrimidinyloxy benzene compounds” (E. I. DU PONT DE NEMOURS AND COMPANY, priority 2013, dated 2017)

What was measured:
giant foxtail [1] = experiment: Test A preemergence; format: in vivo, Setaria faberii; settings: Setaria faberi, pre-emergence, 240 h, 0 to 100 scale where 0 is no effect and 100 is complete control
Summary of the method: (§1)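 Pre- and postemergence greenhouse screen. Soil: loam + sand. Spray carrier: solvent mixture, non-phytotoxic, with surfactant. Post timing at 1–2 leaves, height 2–10 cm. Readout: visual injury on a 0–100 scale roughly 10 days after application, untreated plants as reference.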

large (Lg) crabgrass [2] = experiment: Test A postemergence; format: in vivo, Digitaria sanguinalis; settings: 0 to 100 scale where 0 is no effect and 100 is complete control
Summary of the method: as §1

galium = experiment: Test C preemergence; format: in vivo, Galium aparine; settings: Galium, pre-emergence
Summary of the method: (§2)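 Greenhouse herbicide screen. Pre: seeded loam/sand, sprayed at planting. Post: 1–4 leaf plants (2–18 cm) in peat-based mix. Formulation: solvent mixture + surfactant, non-phytotoxic. Readout: visual % control vs untreated, 13–15 d; dash = not tested.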

large (Lg) crabgrass [3] = experiment: Test C preemergence; format: in vivo, Digitaria sanguinalis; settings: Digitaria sanguinalis, pre-emergence
Summary of the method: as §2

giant foxtail [4] = experiment: Test C preemergence; format: in vivo, Setaria faberii; settings: Setaria faberi, pre-emergence
Summary of the method: as §2

johnsongrass [5] = experiment: Test C preemergence; format: in vivo, Sorghum halepense; settings: Sorghum halepense, pre-emergence, preemergence, read-out: Johnsongrass plant response rating
Summary of the method: as §2

lambsquarters = experiment: Test C preemergence; format: in vivo, Chenopodium album; settings: Chenopodium album, pre-emergence, preemergence, read-out: Lambsquarters plant response rating
Summary of the method: as §2

yellow nutsedge [6] = experiment: Test C preemergence; format: in vivo, Cyperus esculentus; settings: Cyperus, pre-emergence, preemergence, read-out: Nutsedge, Yellow plant response rating
Summary of the method: as §2

giant foxtail [7] = experiment: Test C postemergence; format: in vivo, Setaria faberii; settings: Setaria faberi, post-emergence
Summary of the method: as §2

johnsongrass [8] = experiment: Test C postemergence; format: in vivo, Sorghum halepense
Summary of the method: as §2

yellow nutsedge [9] = experiment: Test C postemergence; format: in vivo, Cyperus esculentus
Summary of the method: as §2

soybean = experiment: Test C postemergence; format: in vivo, Glycine max
Summary of the method: as §2

waterhemp = experiment: Test C postemergence; format: in vivo, Amaranthus rudis
Summary of the method: as §2

chickweed = experiment: Test C postemergence; format: in vivo, Stellaria media; settings: Stellaria media, post-emergence
Summary of the method: as §2

[10] = 16 g ai/ha, scale 0 to 100 (0 no effect, 100 complete control)
[11] = 62 g ai/ha, scale 0 (no effect) to 100 (complete control)
[12] = 125 g ai/ha, scale 0 (no effect) to 100 (complete control)
[13] = 31 g ai/ha, postemergence, visual rating, scale 0 to 100 (0 no effect, 100 complete control), 13 to 15 days

With `FC(F)(F)c1cn(-c2ccccc2Oc2ncc(Cl)cn2)nn1` [Compound 166, 5-chloro-2-[2-[4-(trifluoromethyl)-1H-1,2,3-triazol-1-yl]phenoxy]pyrimidine] the pest or weed control at 125 g/ha (giant foxtail [1]; 125 g ai/ha, read-out: Plant response rating, Foxtail, Giant) was 100%, the pest or weed control at 500 g/ha (giant foxtail [1]; 500 g ai/ha, read-out: Foxtail, Giant plant response rating) was 100% and the “Crabgrass, Large plant response rating” value (large (Lg) crabgrass [2]; 125 g ai/ha) was 90. For the same compound, the pest or weed control at 500 g/ha (large (Lg) crabgrass [2]; Digitaria sanguinalis, post-emergence, 240 h, 500 g ai/ha, read-out: Plant response rating, Crabgrass, Large) was 100%, the pest or weed control at 16 g/ha (galium; 16 g ai/ha, preemergence, scale 0 to 100 (0 no effect, 100 complete control), read-out: Galium plant response rating) was 98% and the pest or weed control at 62 g/ha (galium; 62 g ai/ha, preemergence, scale 0 (no effect) to 100 (complete control), read-out: Galium plant response rating) was 95%. It also gave a pest or weed control at 125 g/ha (galium; 125 g ai/ha, preemergence, scale 0 (no effect) to 100 (complete control), read-out: Galium plant response rating) of 95%, a pest or weed control at 31 g/ha (galium; Preemergence, 31 g ai/ha, scale 0 to 100, 0 no effect, 100 complete control, read-out: Plant response rating, Galium) of 100% and a pest or weed control at 16 g/ha (large (Lg) crabgrass [3]; 16 g ai/ha, preemergence, scale 0 to 100 (0 no effect, 100 complete control), read-out: Crabgrass, Large plant response rating) of 100%. The pest or weed control at 62 g/ha (large (Lg) crabgrass [3]; 62 g ai/ha, preemergence, scale 0 (no effect) to 100 (complete control), read-out: Crabgrass, Large plant response rating) was 100%, the pest or weed control at 125 g/ha (large (Lg) crabgrass [3]; 125 g ai/ha, preemergence, scale 0 (no effect) to 100 (complete control), read-out: Crabgrass, Large plant response rating) was 100% and the pest or weed control at 31 g/ha (large (Lg) crabgrass [3]; Preemergence, 31 g ai/ha, scale 0 to 100, 0 no effect, 100 complete control, read-out: Plant response rating, Crabgrass, Large) was 100%. For the same compound, the pest or weed control at 16 g/ha (giant foxtail [4]; 16 g ai/ha, preemergence, scale 0 to 100 (0 no effect, 100 complete control), read-out: Foxtail, Giant plant response rating) was 100%, the pest or weed control at 62 g/ha (giant foxtail [4]; 62 g ai/ha, preemergence, scale 0 (no effect) to 100 (complete control), read-out: Foxtail, Giant plant response rating) was 100% and the pest or weed control at 125 g/ha (giant foxtail [4]; 125 g ai/ha, preemergence, scale 0 (no effect) to 100 (complete control), read-out: Foxtail, Giant plant response rating) was 100%. It also gave a pest or weed control at 31 g/ha (giant foxtail [4]; Preemergence, 31 g ai/ha, scale 0 to 100, 0 no effect, 100 complete control, read-out: Plant response rating, Foxtail, Giant) of 100%, a pest or weed control at 16 g/ha (johnsongrass [5]; [10]) of 5% and a pest or weed control at 62 g/ha (johnsongrass [5]; [11]) of 85%. For the same compound, the pest or weed control at 125 g/ha (johnsongrass [5]; [12]) was 95%, the pest or weed control at 16 g/ha (lambsquarters; [10]) was 90% and the pest or weed control at 62 g/ha (lambsquarters; [11]) was 98%. For the same compound, the pest or weed control at 125 g/ha (lambsquarters; [12]) was 98%, the pest or weed control at 16 g/ha (yellow nutsedge [6]; [10]) was 0% and the pest or weed control at 62 g/ha (yellow nutsedge [6]; [11]) was 35%. The pest or weed control at 125 g/ha (yellow nutsedge [6]; [12]) was 80%, the pest or weed control at 16 g/ha (giant foxtail [7]; 16 g ai/ha, postemergence, 0 is no effect, 100 is complete control, read-out: Plant response rating (0 to 100), Foxtail, Giant) was 5% and the pest or weed control at 31 g/ha (giant foxtail [7]; 31 g ai/ha, postemergence, visual rating, scale 0 to 100 (0 no effect, 100 complete control), 13 to 15 days, read-out: Foxtail, Giant plant response rating) was 5%. The pest or weed control at 125 g/ha (giant foxtail [7]; 125 g ai/ha, postemergence, visual rating, scale 0 to 100 (0 no effect, 100 complete control), read-out: Plant response rating, Foxtail, Giant) was 35%, the pest or weed control at 62 g/ha (giant foxtail [7]; Postemergence, 62 g ai/ha, scale 0 to 100 (0 no effect, 100 complete control), read-out: Plant response rating, Foxtail, Giant) was 10% and the “Johnsongrass plant response rating” value (johnsongrass [8]; [13]) was 5. For the same compound, the pest or weed control at 16 g/ha (johnsongrass [8]; Sorghum halepense, post-emergence, 16 g ai/ha, postemergence, 0 is no effect, 100 is complete control, read-out: Plant response rating (0 to 100), Johnsongrass) was 5%, the pest or weed control at 125 g/ha (johnsongrass [8]; Sorghum halepense, post-emergence, 125 g ai/ha, postemergence, visual rating, scale 0 to 100 (0 no effect, 100 complete control), read-out: Plant response rating, Johnsongrass) was 5% and the pest or weed control at 62 g/ha (johnsongrass [8]; Sorghum halepense, post-emergence, Postemergence, 62 g ai/ha, scale 0 to 100 (0 no effect, 100 complete control), read-out: Plant response rating, Johnsongrass) was 5%. For the same compound, the “Nutsedge, Yellow plant response rating” value (yellow nutsedge [9]; [13]) was 5, the pest or weed control at 16 g/ha (yellow nutsedge [9]; Cyperus, post-emergence, 16 g ai/ha, postemergence, 0 is no effect, 100 is complete control, read-out: Plant response rating (0 to 100), Nutsedge, Yellow) was 0% and the pest or weed control at 125 g/ha (yellow nutsedge [9]; Cyperus, post-emergence, 125 g ai/ha, postemergence, visual rating, scale 0 to 100 (0 no effect, 100 complete control), read-out: Plant response rating, Nutsedge, Yellow) was 5%. For the same compound, the pest or weed control at 62 g/ha (yellow nutsedge [9]; Cyperus, post-emergence, Postemergence, 62 g ai/ha, scale 0 to 100 (0 no effect, 100 complete control), read-out: Plant response rating, Nutsedge, Yellow) was 5%, the “Soybean plant response rating” value (soybean; [13]) was 95 and the Soybean plant response rating (crop injury, 0-100 scale) at 16 g/ha (soybean; Glycine max, post-emergence, 16 g ai/ha, postemergence, 0 is no effect, 100 is complete control) was 40%. For the same compound, the Soybean plant response rating (crop injury, 0-100 scale) at 125 g/ha (soybean; Glycine max, post-emergence, 125 g ai/ha, postemergence, visual rating, scale 0 to 100 (0 no effect, 100 complete control), read-out: Plant response rating, Soybean) was 95%, the Soybean plant response rating (crop injury, 0-100 scale) at 62 g/ha (soybean; Glycine max, post-emergence, Postemergence, 62 g ai/ha, scale 0 to 100 (0 no effect, 100 complete control)) was 90% and the “Waterhemp plant response rating” value (waterhemp; [13]) was 85. It also gave a pest or weed control at 16 g/ha (waterhemp; Amaranthus tuberculatus, post-emergence, 16 g ai/ha, postemergence, 0 is no effect, 100 is complete control, read-out: Plant response rating (0 to 100), Waterhemp) of 75%, a pest or weed control at 125 g/ha (waterhemp; Amaranthus tuberculatus, post-emergence, 125 g ai/ha, postemergence, visual rating, scale 0 to 100 (0 no effect, 100 complete control), read-out: Plant response rating, Waterhemp) of 90% and a pest or weed control at 62 g/ha (waterhemp; Amaranthus tuberculatus, post-emergence, Postemergence, 62 g ai/ha, scale 0 to 100 (0 no effect, 100 complete control), read-out: Plant response rating, Waterhemp) of 90%. For the same compound, the pest or weed control at 16 g/ha (chickweed; 16 g ai/ha, postemergence, 0 is no effect, 100 is complete control, read-out: Plant response rating (0 to 100), Chickweed) was 60%, the pest or weed control at 31 g/ha (chickweed; 31 g ai/ha, postemergence, visual rating, scale 0 to 100 (0 no effect, 100 complete control), 13 to 15 days, read-out: Chickweed plant response rating) was 80% and the pest or weed control at 125 g/ha (chickweed; 125 g ai/ha, postemergence, visual rating, scale 0 to 100 (0 no effect, 100 complete control), read-out: Plant response rating, Chickweed) was 95%. It also gave a pest or weed control at 62 g/ha (chickweed; Postemergence, 62 g ai/ha, scale 0 to 100 (0 no effect, 100 complete control), read-out: Plant response rating, Chickweed) of 90%.
